Measurements from patent US20250129370A1, “METHOD FOR REDUCING HEPATIC TRIGLYCERIDES” (ADAERATA, LIMITED PARTNERSHIP, priority 2022, published 2025).

Key:
[1] = tested on: Mouse FL38B hepatocyte cells; experiment: Lipid droplet accumulation in oleic acid-treated mouse hepatocyte cells; format: cell-based
Method: FIGS. 37A-E: Comparison of various ASOs and vitamin E on lipid droplet accumulation in mouse FL38B hepatocytes. (FIG. 37A) Immunocytochemical analysis of mouse FL38B hepatocyte cells incubated for 48 h with oleic acid in the presence of either fluorescent mouse mASO-1, mASO-2 or mASO-7 (not shown) or α-tocopherol (vitamin E) (arrows pointing towards transfected cells, red staining indicate lipid droplets). (FIG. 37B) Quantitative analysis of results expressed in bar graph. (FIGS. 37C-D). The effect of eight ASOs on Pcsk7 mRNA levels as measured by quantitative PCR (qPCR). The experiment was repeated two independent times. *p<0.05 (FIG. 37A) The effect of mASO-1, mASO-2, mASO-7 and Vitamin E on reduction of accumulation of fluorescent triglycerides in cells as estimated by FACS measurement of lipid droplets (LD) by LipidTox™ staining. (FIG. 37E). modifications of ASO by trivalent linkage to N-acetyl-Galactosamine ([…]).
The effect of eight ASOs on Pcsk7 mRNA levels was measured by quantitative PCR (qPCR) (FIG. 37C). Mouse FL38B hepatocyte cells were incubated for 48 h with oleic acid in the presence of either fluorescent (green) mouse mASO-1, mASO-7 or α-tocopherol (vitamin E). […] (FIGS. 37B-37D). Mouse FL38B hepatocyte cells were plated on day 1, ASOs were added on day 2, the media was replaced on day 3 and RNA was extracted on day 4. […]

mice fed a HFFC diet = experiment: Liver lipid droplets and histopathology in mice recovering from HFFC diet; format: in vivo, mouse; conditions: after 8 weeks recovery and treatment
From the text: FIGS. 39A-D (FIG. 39A) Upper panels—Oil red 0 staining of liver sections control (no treatment), and ASO-2, ASO-7 and α-tocopherol treated mice. Lower panels; Total area of LDs, mean area of LD and LD number in non treated mice or in mice treated with GalNac-ASO-7, GalNac-ASO-2 or α-tocopherol. (FIG. 39B) Liver morphology and fat accumulation measured in terms of liver inflammation, hepatocyte ballooning and steatosis grade in non treated mice or in mice treated with GalNac-ASO-7, GalNac-ASO-2 or α-tocopherol. (FIG. 39C) Extent of fibrosis measured by Sirius red staining in non treated mice or in mice treated with GalNac-ASO-7, GalNac-ASO-2 or α-tocopherol. […]
Eight ASOs against mouse Pcsk7 were tested in mouse FL38B hepatocytes and the best ones, namely ASO2 and ASO7, were modified (FIG. 37D) with covalent linkages to trivalent N-acetyl-Galactosamine (GalNac) residues (FIG. 37E). […] Mice were next injected with 5 mg/kg of either GalNac-ASO7 and GalNac-ASO-2, twice a week for 1 month, whereupon the livers and their partially purified primary hepatocytes were analyzed by RT-qPCR for the levels of Pcsk7 mRNA. […]
The reduction of LD accumulation in mice treated with GalNac-ASO-7 or GalNac-ASO-2 compared to α-tocopherol was next analyzed (FIG. 39A).

Pcsk7 mRNA = experiment: Liver Pcsk7 mRNA after the recovery period following HFFC diet; format: in vivo, mouse; conditions: after 8 weeks recovery, 500 IU/kg of food
Method: The dose-dependent efficacy of these ASOs following their subcutaneous injection in mice was tested for the decrease in total liver Pcsk7 mRNA at 2, 5, 10 and 15 mg/kg, twice a week for 1 month. […] Mice were next injected with 5 mg/kg of either GalNac-ASO7 and GalNac-ASO-2, twice a week for 1 month, whereupon the livers and their partially purified primary hepatocytes were analyzed by RT-qPCR for the levels of Pcsk7 mRNA. […] A program was then set up whereby 8 weeks-old mice were fed a HFFC diet for 16 weeks, after which they were switched to a regular chow diet for another 8 weeks recovery period. The mice were divided into 3 groups of 12 mice each and treated as follows starting from the beginning of the recovery period (FIG. 38C): (1) a control non-treated group; (2) two GalNac-ASO groups subcutaneously injected twice a week for 8 weeks with either GalNac-ASO7 or GalNac-ASO2 at 5 mg/kg; (3) a group fed a chow diet containing Vitamin E (α-tocopherol) at 500 IU/kg of food.
The inventors next compared the levels of Pcsk7 mRNAs in the livers of mice after the 8 weeks recovery period that followed the 16-weeks HFFC diet.

Cc1c(C)c2c(c(C)c1O)CC[C@@](C)(CCC[C@H](C)CCC[C@H](C)CCCC(C)C)O2 [α-tocopherol]
accumulation of lipid droplets ([1]; 48 h with oleic acid, immunocytochemistry): significantly reduced | accumulation of fluorescent triglycerides in cells ([1]; FACS measurement of lipid droplets by LipidTox staining): best reduction | reduced total area, more abundant but smaller LDs, relative to GalNac-ASO7 (mice fed a HFFC diet): significantly less | increase in Pcsk7 mRNA levels (Pcsk7 mRNA): 33%
